Measurements published in patent publication US6710048B2, “Pyrazine derivatives as modulators of tyrosine kinases” (Ortho-McNeil Pharmaceutical, Inc., priority 2000, dated 2004).

What was measured:
[1] = test system: HeLa cervical adenocarcinoma; assay: Cell proliferation assay (14C-thymidine incorporation), HeLa; type: cell-based; conditions: Homo sapiens, read-out: Inhibition of cell proliferation IC50
Experimental: (§1) The ability of a test compound to inhibit the proliferation of cell growth was determined by measuring incorporation of ^14C-labelled thymidine into newly synthesized DNA within the cells. This method was used on cell lines derived from carcinomas originating from several tissues such as HeLa cervical adenocarcinoma (American Type Culture Collection (ATCC), Virginia, Cat. #CCL-2), A375 malignant melanoma (ATCC CRL-1619), SK-OV-3 ovarian adenocarcinoma (ATCC HTB-77) HCT-116 colon carcinoma (CCL-247) and PC-3 prostate adenocarcinoma (ATCC CRL-1435). The method was also used on primary cells such as HUVEC endothelial cells (ATCC CRL-1730). In this way the effect of a compound on cell growth of cells with many different phenotypes can be determined. Cells were trypsinized and counted and 3000-8000 cells were added to each well of a 96-well CytoStar tissue culture treated scintillating microplate (Amersham #RPNQ0160) in complete medium in a volume of 100 μl. Cells were incubated for 24 hours in complete medium at 37° C. in an atmosphere containing 5% CO2.
(§2) Next, 1 μl of test compound in 100% DMSO was added to the wells of the plate. DMSO only was added to control wells. Cells were incubated for 24 more hours in complete medium at 37° C. in an atmosphere containing 5% CO2. Methyl ^14C-thymidine 56 mCi/mmol (NEN #NEC568 or Amersham #CFA532) was diluted in complete medium and 0.2 μCi/well was added to each well of the CytoStar plate in a volume of 20 μl. The plate was incubated for 24 hours at 37° C. plus 5% CO2 in drug plus ^14C-thymidine. The contents of the plate were discarded into a ^14C radioactive waste container by inverting the plate and the plate was washed twice with 200 μl PBS. 200 μl of PBS is then added to each well. The top of the plate was sealed with a transparent plate sealer and a white plate backing sealer (Packard #6005199) was applied to the bottom of the plate. The degree of Methyl ^14C-thymidine incorporation was quantified on a Packard Top Count.

[2] = test system: SK-OV-3 ovarian adenocarcinoma; assay: Cell proliferation assay (14C-thymidine incorporation), SK-OV-3; type: cell-based; conditions: Homo sapiens, read-out: Inhibition of cell proliferation IC50
Experimental: as §1, §2

[3] = target: T1, EGFR (epidermal growth factor receptor) (Homo sapiens, UniProt P00533); assay: EGF-R kinase selectivity assay; type: biochemical; conditions: Table 4 kinase selectivity
T1 construct: is purified from human A431 cell membranes; purchased Sigma E3641; host or cells: A431 cell membranes
T1 sequence (P00533 25-1210): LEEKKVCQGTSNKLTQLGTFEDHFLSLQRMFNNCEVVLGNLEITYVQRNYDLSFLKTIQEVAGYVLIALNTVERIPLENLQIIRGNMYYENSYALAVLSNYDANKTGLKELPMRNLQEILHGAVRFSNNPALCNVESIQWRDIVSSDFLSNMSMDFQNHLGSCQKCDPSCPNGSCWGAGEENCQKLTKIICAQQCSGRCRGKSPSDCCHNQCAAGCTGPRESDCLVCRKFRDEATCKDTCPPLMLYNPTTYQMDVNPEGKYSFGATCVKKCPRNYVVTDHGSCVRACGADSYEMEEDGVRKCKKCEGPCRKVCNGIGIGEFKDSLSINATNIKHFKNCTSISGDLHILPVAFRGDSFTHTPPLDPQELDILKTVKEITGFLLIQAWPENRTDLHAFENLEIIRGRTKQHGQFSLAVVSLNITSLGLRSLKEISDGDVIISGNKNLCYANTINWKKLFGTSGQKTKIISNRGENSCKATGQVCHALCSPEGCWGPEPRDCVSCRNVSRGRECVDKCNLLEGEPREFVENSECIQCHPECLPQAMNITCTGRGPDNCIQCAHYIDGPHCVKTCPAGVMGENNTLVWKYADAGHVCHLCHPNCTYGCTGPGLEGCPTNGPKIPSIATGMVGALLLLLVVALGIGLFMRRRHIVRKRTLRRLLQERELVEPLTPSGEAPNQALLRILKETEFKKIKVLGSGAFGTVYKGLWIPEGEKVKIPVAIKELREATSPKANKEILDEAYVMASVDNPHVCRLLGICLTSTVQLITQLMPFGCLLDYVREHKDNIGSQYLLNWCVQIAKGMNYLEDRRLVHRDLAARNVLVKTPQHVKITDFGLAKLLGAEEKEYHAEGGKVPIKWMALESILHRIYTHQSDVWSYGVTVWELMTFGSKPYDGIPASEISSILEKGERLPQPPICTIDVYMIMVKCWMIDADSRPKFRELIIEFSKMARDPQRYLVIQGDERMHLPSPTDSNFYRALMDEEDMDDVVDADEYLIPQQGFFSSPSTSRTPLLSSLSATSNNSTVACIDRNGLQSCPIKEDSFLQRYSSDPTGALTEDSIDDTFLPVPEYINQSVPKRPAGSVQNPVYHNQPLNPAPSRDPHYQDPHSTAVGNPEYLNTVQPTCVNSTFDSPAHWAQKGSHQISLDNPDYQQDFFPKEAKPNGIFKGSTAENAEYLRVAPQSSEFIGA
Experimental: Assays to test compound inhibition of other kinases were preformed using methods that measure the amount of phosphorylation of a biotinylated peptide substrate. Biotinylated peptide substrates were selected from the literature as appropriate for the enzyme being evaluated. […] Assay conditions vary slightly for each protein kinase, for example, insulin receptor kinase requires 10 mM MnCl2 for activity and Calmodulin-dependent protein kinase requires calmodulin and 2 mM CaCl2. The reaction mixture was dispensed into the wells of a streptavidin coated Flashplate and 1 μl drug stock in 100% DMSO was added to a 100 μl reaction volume resulting in a final concentration of 1% DMSO in the reaction. Enzyme was diluted in 50 mM Tris-HCl pH=8.0, 0.1% BSA and added to each well. The reaction was incubated for one hour at 30° C. in the presence of compound. […] The plate was read on a scintillation counter to determine ^33P-γ-ATP incorporated into the immobilized peptide. […] A maximum and minimum signal for the assay was determined on each plate. The IC50 was calculated from the dose response curve of the percent inhibition of the maximum signal in the assay according to the formula [max signal−background/test compound signal−background (100)=% inhibition] by graphing the percent inhibition against the log concentration of test compound. […]

Row | IC50 [1] [µM] | IC50 [2] [µM] | SMILES | IC50 [3] [µM]
1 | 2.23 | 21.5 | CN(C)CCNc1cncc(-c2cncc(Nc3cccc(Cl)c3)n2)c1 [Cmd 33, N′-[5-[6-[(3-chlorophenyl)amino]pyrazinyl]-3-pyridinyl]-N^2,N^2-dimethyl-1,2-ethanediamine] | –
2 | – | – | CN(C)CCCNc1cncc(-c2cncc(Nc3cccc(Cl)c3)n2)c1 [Cmd 35] | 20.7
3 | – | – | O=C(NCCCO)c1cncc(-c2cncc(Nc3cccc(Cl)c3)n2)c1 [Cmd 39] | 6.06
4 | 2.2 | 3.78 | Clc1cccc(Nc2cncc(-c3cncc(NCCCN4CCCCC4)c3)n2)c1 [Cmd 73] | –
